Experimental data as given in ChEMBL document CHEMBL1201862, “PubChem BioAssay data set” (2004).
The source made the active and inactive calls.

How the values were obtained:
[1] = target: T1, Oxysterols receptor LXR-beta (Homo sapiens, UniProt P55055); assay type: functional, cell-based;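 note: Cell-based luminescence dose-response assay of agonist activity at LXR, run as a confirmatory counterscreen to a daf-12 agonist screen; agonist potency from rising luciferase signal of a Gal4-LXR reporter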
T1 sequence (P55055 whole entry): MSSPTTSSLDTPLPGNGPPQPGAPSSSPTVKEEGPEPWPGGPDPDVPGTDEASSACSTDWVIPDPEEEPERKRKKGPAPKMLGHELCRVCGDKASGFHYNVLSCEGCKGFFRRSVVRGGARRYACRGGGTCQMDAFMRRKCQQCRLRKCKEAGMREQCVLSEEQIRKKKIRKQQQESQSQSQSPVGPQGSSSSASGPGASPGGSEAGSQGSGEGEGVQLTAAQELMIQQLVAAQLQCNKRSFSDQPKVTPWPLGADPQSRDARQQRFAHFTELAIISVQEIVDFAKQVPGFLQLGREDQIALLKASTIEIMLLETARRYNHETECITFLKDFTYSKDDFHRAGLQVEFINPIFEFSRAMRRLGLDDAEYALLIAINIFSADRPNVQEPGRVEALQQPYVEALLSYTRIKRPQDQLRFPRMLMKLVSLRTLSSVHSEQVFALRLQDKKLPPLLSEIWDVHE

[2] = Luminescence-based cell-based high throughput dose response assay to identify activators of the DAF-12 from the parasite S. stercoralis (ssDAF-12).; assay type: functional
[3] = target: T1, Oxysterols receptor LXR-beta; experiment: LXR agonists, Gal4 luciferase reporter, dose response, counter-screen for ssDAF-12 agonist project, cell-based, luminescence, HEK293, S. stercoralis campaign (AID 720737); assay type: functional; settings: read-out: IC50 (the source's name)
[4] = viability loss in human Jurkat cells – cell-based, luminescence, cytotoxicity control for P. falciparum gametocyte viability project, dose response (AID 1117277); assay type: functional;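 note: potency reflects loss of cellular ATP meaning fewer viable cells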
[5] = viability inhibitors of stage V gametocytes – luminescence, dose response (AID 1117278); assay type: functional, cell-based;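 note: gametocytes exposed to compound for 24 hours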
HEK293 [6] = experiment: cells; assay type: functional, cell-based; settings: Homo sapiens
[7] = viability loss in Vero cells – cytotoxicity control for Vif-APOBEC3G degradation inhibitor project, dose response (AID 1117358); assay type: functional; settings: Vero
HEK293 [8] = experiment: NOD2 signaling inhibitors in MDP-stimulated cells, cell-based, uHTS, luminescence (AID 2001); assay type: functional; settings: Homo sapiens
HEK293 [9] = experiment: cells; assay type: functional, cell-based; settings: Homo sapiens; remark: listed apart in the source
HEK293 [10] = experiment: inhibition of NOD1-driven NF-kB reporter – cell-based, luminescence, uHTS, primary screen (AID 1578); assay type: functional; settings: Homo sapiens
Aminopeptidase N = target: T2, Aminopeptidase N (Plasmodium falciparum FcB1/Columbia, UniProt O96935); experiment: malaria alanyl aminopeptidase activity blockers – biochemical, fluorogenic H-Leu-NHMec substrate, 1536-well (AID 1445); set-up: species or system Plasmodium falciparum 3D7, 3D7
T2 sequence (O96935 whole entry): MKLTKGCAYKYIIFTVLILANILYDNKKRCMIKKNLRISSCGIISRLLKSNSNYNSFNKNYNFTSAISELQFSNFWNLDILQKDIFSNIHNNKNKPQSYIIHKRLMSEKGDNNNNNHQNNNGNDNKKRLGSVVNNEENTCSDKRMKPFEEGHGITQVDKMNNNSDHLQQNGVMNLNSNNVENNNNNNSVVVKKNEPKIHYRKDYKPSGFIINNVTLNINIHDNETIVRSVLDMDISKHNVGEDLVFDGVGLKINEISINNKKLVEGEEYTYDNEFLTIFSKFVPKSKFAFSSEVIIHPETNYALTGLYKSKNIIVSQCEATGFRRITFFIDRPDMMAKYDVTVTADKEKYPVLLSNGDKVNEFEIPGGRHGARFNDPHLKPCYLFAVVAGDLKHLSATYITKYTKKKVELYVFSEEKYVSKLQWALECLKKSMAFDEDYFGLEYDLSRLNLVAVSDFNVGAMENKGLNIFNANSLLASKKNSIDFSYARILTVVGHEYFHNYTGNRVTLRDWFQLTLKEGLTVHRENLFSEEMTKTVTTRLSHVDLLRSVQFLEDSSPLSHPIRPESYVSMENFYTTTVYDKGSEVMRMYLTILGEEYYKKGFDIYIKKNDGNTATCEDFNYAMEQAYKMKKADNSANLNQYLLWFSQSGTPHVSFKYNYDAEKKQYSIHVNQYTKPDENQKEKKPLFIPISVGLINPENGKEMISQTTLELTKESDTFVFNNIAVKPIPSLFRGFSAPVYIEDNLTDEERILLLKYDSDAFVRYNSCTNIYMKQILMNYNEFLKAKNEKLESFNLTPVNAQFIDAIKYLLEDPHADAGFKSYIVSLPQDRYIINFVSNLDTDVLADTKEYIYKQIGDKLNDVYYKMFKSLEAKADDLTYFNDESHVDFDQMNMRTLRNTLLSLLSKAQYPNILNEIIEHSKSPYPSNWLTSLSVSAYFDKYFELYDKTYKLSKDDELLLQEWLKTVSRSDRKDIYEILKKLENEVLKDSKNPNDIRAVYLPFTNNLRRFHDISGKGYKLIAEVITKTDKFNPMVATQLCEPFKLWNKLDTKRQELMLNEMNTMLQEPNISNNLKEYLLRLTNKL

[11] = target: T3, Zinc finger protein mex-5 (Caenorhabditis elegans, UniProt Q9XUB2); experiment: potency of MEX-5 RNA-binding blockers – biochemical, C. elegans, fluorescence polarization, dose response (AID 1960)
T3 sequence (Q9XUB2 whole entry): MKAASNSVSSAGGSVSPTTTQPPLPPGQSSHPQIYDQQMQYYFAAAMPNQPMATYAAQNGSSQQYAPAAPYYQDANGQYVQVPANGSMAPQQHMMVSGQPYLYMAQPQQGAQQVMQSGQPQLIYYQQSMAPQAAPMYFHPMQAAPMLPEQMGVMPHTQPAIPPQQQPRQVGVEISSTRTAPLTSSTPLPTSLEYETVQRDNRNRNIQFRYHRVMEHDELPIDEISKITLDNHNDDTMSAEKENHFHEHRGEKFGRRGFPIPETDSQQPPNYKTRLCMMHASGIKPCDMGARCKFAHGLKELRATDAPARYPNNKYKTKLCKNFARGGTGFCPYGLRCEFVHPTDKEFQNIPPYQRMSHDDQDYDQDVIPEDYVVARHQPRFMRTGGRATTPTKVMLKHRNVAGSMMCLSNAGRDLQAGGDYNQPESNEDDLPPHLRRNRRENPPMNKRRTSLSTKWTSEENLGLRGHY

Albumin = Albumin (Bos taurus, UniProt P02769); experiment: Counterscreen for inhibitors of T-cell receptor (TCR)-CD3 interaction: Fluorescence-based biochemical high throughput dose response assay to identify inhibitors of T-cell receptor (TCR)-CD3 interaction using a TAMRA-labeled BSA probe.; assay type: functional
[12] = target: T4, RNA-binding protein pos-1 (Caenorhabditis elegans, UniProt G5EF15); experiment: disruptors of C. elegans POS-1 RNA interaction – biochemical, fluorescence polarization, dose response (AID 1964);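 note: purified POS-1 fused to maltose binding protein made in E. coli; potency of compounds blocking POS-1 binding to fluorescent RNA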
T4 sequence (G5EF15 whole entry): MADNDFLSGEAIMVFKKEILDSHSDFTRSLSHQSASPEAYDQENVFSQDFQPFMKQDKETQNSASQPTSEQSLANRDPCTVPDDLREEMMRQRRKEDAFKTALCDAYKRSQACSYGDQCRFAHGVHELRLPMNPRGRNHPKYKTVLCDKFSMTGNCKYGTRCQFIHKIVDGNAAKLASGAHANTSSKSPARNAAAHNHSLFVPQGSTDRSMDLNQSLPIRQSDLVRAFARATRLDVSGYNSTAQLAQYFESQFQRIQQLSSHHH

[13] = target: RNA-editing ligase 1, mitochondrial (Trypanosoma brucei brucei, UniProt P86926); experiment: inhibition of trypanosome RNA editing ligase – biochemical, fluorescence, Trypanosoma brucei, dose response (AID 1117295); assay type: functional
RNA-editing ligase 1, mitochondrial, sequence (P86926 whole entry): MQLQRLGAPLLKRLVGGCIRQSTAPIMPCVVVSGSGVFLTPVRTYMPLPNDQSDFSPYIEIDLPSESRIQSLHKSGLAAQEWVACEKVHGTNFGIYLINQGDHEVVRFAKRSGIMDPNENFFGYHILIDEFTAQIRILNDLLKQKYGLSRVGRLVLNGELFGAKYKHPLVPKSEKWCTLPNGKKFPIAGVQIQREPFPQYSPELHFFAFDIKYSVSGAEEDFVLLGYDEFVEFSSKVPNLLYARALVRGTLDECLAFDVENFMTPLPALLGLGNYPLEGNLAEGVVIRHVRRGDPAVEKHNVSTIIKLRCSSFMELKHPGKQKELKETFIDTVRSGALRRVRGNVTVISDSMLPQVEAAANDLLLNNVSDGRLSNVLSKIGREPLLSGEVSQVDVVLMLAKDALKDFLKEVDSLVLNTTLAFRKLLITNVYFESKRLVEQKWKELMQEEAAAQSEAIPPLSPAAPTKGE

Albumin, sequence (P02769 whole entry, the tested form may be a part): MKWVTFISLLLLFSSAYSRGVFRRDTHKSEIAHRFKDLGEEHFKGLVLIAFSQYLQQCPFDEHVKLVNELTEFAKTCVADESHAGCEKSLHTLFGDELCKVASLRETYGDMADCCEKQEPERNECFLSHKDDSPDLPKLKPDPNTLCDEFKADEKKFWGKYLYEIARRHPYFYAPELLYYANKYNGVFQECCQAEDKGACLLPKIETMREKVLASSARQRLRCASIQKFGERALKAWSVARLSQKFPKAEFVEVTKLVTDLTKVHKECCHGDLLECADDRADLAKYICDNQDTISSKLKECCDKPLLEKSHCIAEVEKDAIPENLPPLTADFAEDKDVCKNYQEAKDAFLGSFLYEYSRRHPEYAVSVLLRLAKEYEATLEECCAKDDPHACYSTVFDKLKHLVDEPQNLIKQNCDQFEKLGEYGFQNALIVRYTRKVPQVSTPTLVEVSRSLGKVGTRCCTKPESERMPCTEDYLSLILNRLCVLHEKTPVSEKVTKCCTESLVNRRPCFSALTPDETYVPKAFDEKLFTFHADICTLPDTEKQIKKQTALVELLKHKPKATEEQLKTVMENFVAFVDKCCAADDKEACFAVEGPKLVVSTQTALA

For `COc1ccc(-c2cc(-c3ccccc3O)[nH]n2)cc1`, the EC50 [1] was > 67.6 µM (inactive), the EC50 (cells) was > 67.6 µM (inactive) and the IC50 [2] was > 67.6 µM (inactive). The EC50 [3] was > 67.6 µM (inactive).
With `CC(C)Cc1nnc(NC(=O)CSc2nc(O)c(-c3ccccc3)c(O)n2)s1` the IC50 [4] was > 83.3 µM (inactive) and the IC50 [5] was > 109 µM (inactive).
In the case of `COc1ccc(NC(=O)c2cccc(S(=O)(=O)Nc3ccc(Br)cc3)c2)cn1`, the IC50 (HEK293 [6]) is reported as > 20 µM (inactive), the CC50 [7] is reported as 22.8 µM (active) and the IC50 (HEK293 [8]) is reported as 8.65 µM (active). For the same compound, the IC50 (HEK293 [9]) was 17.3 µM (active) and the EC50 (HEK293 [10]) was 11.2 µM (active).
In the case of `Cc1n[nH]c(S/C(=C/c2ccc(-c3ccc(C(=O)O)cc3)o2)C(=O)O)n1`, the IC50 (Aminopeptidase N) is reported as 18.5 µM (active), the EC50 [11] is reported as 1.45 µM (active) and the IC50 (Albumin) is reported as > 94.2 µM (inactive). The EC50 [12] was 4.1 µM (active) and the IC50 [13] was 77.9 µM (inactive).
